This is an account of results in PubChem BioAssay (NCI).

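Assay format: 96-well plates, 48-hour exposure. Here, GI50 denotes the concentration required for 50% inhibition of growth. TGI: concentration producing complete growth inhibition.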

Assay in all cases: inhibition of tumour cell growth, NCI panel, 48 h
For assay [1], the system named is SNB-75 CNS.
Assay [2] has as its system SK-MEL-5 melanoma.
The test system of assay [3] is UACC-257 melanoma.
The subject of assay [4] is HT29 colon.
Assay [5] concerns HOP-92 NSCLC.
Assay [6] has as its system ACHN renal.
Assay [7] has as its system SK-MEL-2 melanoma.
The subject of assay [8] is SF-268 CNS.
In assay [9] the test system is M14 melanoma.
Assay [10] deals with HCT-15 colon.

As for `C/C(CCn1[nH]c(=O)ccc1=O)=N\Nc1ccc([N+](=O)[O-])cc1[N+](=O)[O-]`, the TGI in [1], in assay [2], in assay [3], in assay [4], in assay [5] and in [6] was more than 100 µM throughout. Further, the TGI in assay [7], in assay [8], in assay [9] and in [10] was more than 100 µM each time.

Regarding `COc1cc2ncn(-c3cc(OCc4ccccc4C(F)(F)F)c(C(C)=O)s3)c2cc1OC`, the GI50 is 19 µM in assay [1]; more than 25 µM in [2]; more than 25 µM in [3]; more than 25 µM in assay [4]; 10.8 µM in assay [5]; more than 25 µM in [6]. In addition, the GI50 in [7], in assay [8], in [9] and in assay [10] was more than 25 µM in each case. Besides, the TGI in assay [1], in [2], in [3], in assay [4], in assay [5] and in assay [6] was more than 25 µM each time. Also, the TGI in [7], in assay [8], in assay [9] and in assay [10] was more than 25 µM each time.

As to `CC1=NN(C(=O)c2ccncc2)C(=O)C1N=Nc1ccc2ccccc2c1` (stereo not given), the TGI in assay [1], in [2], in [3], in assay [4], in assay [5] and in assay [6] was more than 100 µM in each case. The TGI was more than 95.2 µM in assay [7], more than 100 µM in assay [8], more than 96.2 µM in [9] and more than 100 µM in assay [10].

For the compound `CCOC(=O)c1cc(-c2ccc(OC)c(OC)c2)[nH]c1N/N=C/c1c(Cl)cccc1Cl`, the GI50 is 1.85 µM in assay [1]; 0.956 µM in assay [2]; 13.2 µM in assay [3]; 0.913 µM in assay [4]; 4.58 µM in assay [5]; 3.23 µM in assay [6]. Besides, the GI50 was 7.28 µM in [7], 2.29 µM in assay [8], 2.32 µM in assay [9] and 2.38 µM in assay [10]. In addition, the TGI in [1] was 5.94 µM; in assay [2], 8.33 µM; in assay [3], more than 71.9 µM; in [4], 6.28 µM; in assay [5], 26.8 µM; in [6], 16.2 µM. The TGI in assay [7] stood at 48.6 µM; in [8] it was 39.9 µM; in assay [9], 14.9 µM; in [10] it was 10.7 µM.

As for `C=C1CCC2C3(C)COC(c4ccc(Cl)cc4)OC3CCC2(C)C1/C=C/C1=CCOC1=O` (stereo not given), the GI50 was 12.1 µM in [1]; 1.88 µM in assay [2]; 4.63 µM in assay [3]; 5.52 µM in assay [4]; 9.96 µM in assay [5]; 12.1 µM in assay [6]. Further, the GI50 in [7] was 17.9 µM; in assay [8], 19.9 µM; in assay [9] it was 27.2 µM; in assay [10], 4.79 µM. Further, the TGI was 41.5 µM in assay [1]; 31.1 µM in assay [2]; more than 100 µM in assay [3]; more than 100 µM in assay [4]; 39.1 µM in assay [5]; 50.9 µM in assay [6]. Moreover, the TGI in assay [7], in assay [8], in assay [9] and in assay [10] was more than 100 µM throughout.

With `COc1ccc(CNc2cnc3cc(N)cc(N)c3n2)cc1`, the GI50 was 42.8 µM in [1]; 18.9 µM in assay [2]; 21.4 µM in [3]; 42 µM in assay [4]; 24.1 µM in assay [5]; 17.2 µM in assay [6]. Besides, the GI50 was 23.9 µM in assay [7], 28.9 µM in assay [8], 20.5 µM in assay [9] and 24.6 µM in assay [10]. The TGI was more than 100 µM in assay [1]; 35.2 µM in assay [2]; 39.7 µM in [3]; more than 100 µM in assay [4]; 54.3 µM in assay [5]; 32.2 µM in assay [6]. The TGI in assay [7] was determined as 76.3 µM; in assay [8], 81.8 µM; in assay [9] it was 43.9 µM; in assay [10], 68.6 µM.

`CN1CCN(Cc2ccc(NC(=O)c3cncc(C#Cc4cnn5ccccc45)c3)cc2C(F)(F)F)CC1`: the GI50 in [1] is 0.893 µM; in assay [2], 0.902 µM; in assay [3] it was 1.15 µM; in assay [4], 0.811 µM; in [5] it was 0.633 µM; in [6], 0.873 µM. Also, the GI50 in assay [7] was 0.891 µM; in assay [8], 1.05 µM; in [9], 0.576 µM; in [10] it was 0.818 µM. Moreover, the TGI in [1] was determined as 1.81 µM; in assay [2], 1.72 µM; in assay [3], 3 µM; in assay [4], 4.89 µM; in assay [5], 2.98 µM; in [6], 3.72 µM. The TGI in [7] is 2.02 µM; in assay [8], 2.54 µM; in assay [9], 1.39 µM; in assay [10] it was 3.66 µM.

As to `CN(C)CCNC(=O)c1cccc2ncc(-c3ccccc3)nc12`, the TGI in [1] was 32.9 µM; in assay [2] it was 24.1 µM; in assay [3], 31.3 µM; in assay [4] it was 52.4 µM; in [5], 59.1 µM; in [6] it was more than 94.3 µM. The TGI in [7] came to 27.9 µM; in assay [8] it was 29.4 µM; in assay [9], 27.2 µM; in [10] it was 25.2 µM.

Turning to `COc1ccc(NC(=O)CCc2cc(C(C)(C)C)n[nH]2)cc1`, the TGI in assay [1], in assay [2], in assay [3], in assay [4], in [5] and in assay [6] was more than 100 µM throughout. Moreover, the TGI in [7], in assay [8], in assay [9] and in [10] was more than 100 µM throughout.

For `CC(C)(C)c1ccc(O)c(CN(Cc2cc(C(C)(C)C)ccc2O)C2CCCCC2)c1`, the TGI was determined as 51.3 µM in assay [1]; 28.4 µM in assay [2]; 37.4 µM in [3]; 37.1 µM in [4]; 23.9 µM in [5]; 37.4 µM in assay [6]. The TGI is 35.4 µM in [7], more than 53.9 µM in assay [8], 28.4 µM in assay [9] and 36.2 µM in assay [10].

Consider `C1CCN2CC3CCCN4CCCC(C2C1)C34` (stereo not given), for which the TGI in [1], in assay [2], in assay [3], in assay [4], in assay [5] and in assay [6] was more than 100 µM each time. In addition, the TGI in [7], in assay [8], in [9] and in assay [10] was more than 100 µM throughout.

Turning to `O=C(c1ccccc1)c1c(CC(O)c2ccccc2)n(C(=O)c2ccccc2)c2ccccc12` (stereo not given), the TGI in [1] was 58.2 µM; in assay [2], more than 100 µM; in [3], more than 100 µM; in assay [4], more than 100 µM; in assay [5] it was 98.9 µM; in assay [6] it was more than 100 µM. Also, the TGI in assay [7], in [8], in [9] and in [10] was more than 100 µM each time.

Turning to `CC(C)(C)NC/C(=C\c1ccccc1)C(=O)c1ccccc1`, the GI50 is 4.67 µM in assay [1]; 1.53 µM in assay [2]; 2.12 µM in assay [3]; 0.9 µM in [4]; 2.4 µM in assay [5]; 1.45 µM in assay [6]. The GI50 in [7] was 2.01 µM; in assay [8], 3.8 µM; in assay [9], 1.8 µM; in assay [10], 1.56 µM. Further, the TGI in assay [1] was found to be 17.9 µM; in assay [2], 2.91 µM; in [3] it was 6.91 µM; in assay [4] it was 3.52 µM; in [5], 6.56 µM; in assay [6], 3.62 µM. The TGI in assay [7] worked out at 5.02 µM; in assay [8], 21 µM; in [9], 4.2 µM; in assay [10] it was 7.16 µM.

As to `O=S(=O)(Nc1ccc2ccccc2c1)c1ccc(-c2cnc(C3CC3)o2)cc1`, the GI50 was 0.616 µM in [1]; 0.829 µM in assay [2]; 10.4 µM in [3]; 0.429 µM in assay [4]; 3.68 µM in assay [5]; 2.61 µM in assay [6]. For the same compound, the GI50 in [7] was 1.43 µM; in [8], 3.44 µM; in [9], 0.701 µM; in [10] it was 0.557 µM. Further, the TGI in assay [1] is 6.07 µM; in [2], 12.7 µM; in assay [3], 31.5 µM; in assay [4], 17.6 µM; in [5], 30.9 µM; in [6], 42.8 µM. For the same compound, the TGI in [7] stood at 20.6 µM; in [8], 24.5 µM; in assay [9] it was 14.9 µM; in assay [10], 19.2 µM.

With `O=C(Cn1c(C(=O)c2ccccc2)nc2ccccc21)c1ccc(F)cc1`, the GI50 in assay [1] is 10.5 µM; in [2], 4.13 µM; in assay [3] it was 74.3 µM; in assay [4], 3.51 µM; in assay [5], 60.2 µM; in [6] it was more than 59.7 µM. Besides, the GI50 in assay [7] is 17.4 µM; in assay [8], 19.6 µM; in assay [9] it was 3.67 µM; in [10], 3.56 µM. For the same compound, the TGI is more than 100 µM in assay [1]; more than 82.2 µM in assay [2]; more than 100 µM in assay [3]; more than 100 µM in assay [4]; more than 100 µM in assay [5]; more than 100 µM in [6]. The TGI is more than 74 µM in assay [7], more than 100 µM in assay [8], more than 100 µM in assay [9] and more than 100 µM in assay [10].

In the case of `Cc1nc(Nc2ccccc2)sc1C(=O)CC(=O)C(=O)NC12CC3CC(CC(C3)C1)C2`, the TGI was more than 100 µM in [1]; more than 100 µM in assay [2]; more than 100 µM in assay [3]; more than 100 µM in [4]; 89.4 µM in [5]; more than 100 µM in [6]. Also, the TGI in assay [7], in assay [8], in [9] and in assay [10] was more than 100 µM throughout.

In the case of `Nc1nc(N)c(N=Nc2ccc(C(=O)O)c(O)c2)c(N)n1`, the TGI in assay [1], in assay [2], in assay [3], in [4], in assay [5] and in assay [6] was more than 100 µM throughout. The TGI in assay [7], in assay [8], in assay [9] and in assay [10] was more than 100 µM throughout.

With `CC(=N)N(C)O`, the TGI in assay [1], in [2], in [3], in assay [4], in [5] and in [6] was more than 100 µM in each case. The TGI in [7] was more than 100 µM; in assay [8] it was more than 100 µM; in assay [9], more than 100 µM; in assay [10], 42.9 µM.

Regarding `CCC[CH2][Sn]([CH2]CCC)([O]C(=O)c1cc(F)cc(F)c1)[O][Sn]([CH2]CCC)([CH2]CCC)[O]C(=O)c1cc(F)cc(F)c1`, the GI50 in assay [1] was 1.26 µM; in assay [2] it was 1.46 µM; in assay [3], 1.11 µM; in assay [4], 1.91 µM; in assay [5] it was 1.25 µM; in [6] it was 1.51 µM. Moreover, the GI50 in assay [7] was 1.02 µM; in [8] it was 0.91 µM; in [9], 1.48 µM; in assay [10], 1.38 µM. Further, the TGI is 2.71 µM in assay [1]; 2.77 µM in assay [2]; 2.34 µM in assay [3]; 4.09 µM in [4]; 2.52 µM in assay [5]; 2.83 µM in assay [6]. Also, the TGI in assay [7] was determined as 2.2 µM; in [8] it was 2.19 µM; in assay [9], 2.81 µM; in assay [10] it was 2.79 µM.
